Results on 1 molecule are retold here after US10792287B2, “Methods for treating mitochondrial diseases” (The Regents of the University of California, priority 2015, dated 2020).

Experiment [1] concerns Ndufs4 KO mice. The experiment can be described thus: Starburst amacrine cell count (ChAT staining of whole retina). It counts as in vivo, mouse. Conditions: two weeks (P21-P35) intraperitoneal injections. On the procedure: 20× confocal images of whole retina stained with ChAT (marker of starburst amacrine cells) from wild type (FIG. 22A), Ndusf4 KO vehicle treated (FIG. 22B), Ndufs4 KO papaverine treated (FIG. 22C), Ndufs4 KO zolpidem treated (FIG. 22D), and Ndufs4 KO rapamycin treated (FIG. 22E) are shown.
(§1) Wild type and Ndufs4 knockout mice were placed in one of five groups: vehicle, papaverine (20 mg/kg), zolpidem (20 mg/kg), rapamycin (8 mg/kg), or idebenone (200 mg/kg). For papaverine, zolpidem, and rapamycin, drug was dissolved in DMSO which was diluted in 5% PEG-400/5% Tween-20 in PBS. Vehicle contained all components except for the drug. The solution was then sterile filtered and intraperitoneal injections were performed using a 30 gauge needle. Idebenone was administered as a jelly and consumed orally.

The next experiment deals with Ndufs4 knockout mice. The experiment in a line: Visual cliff test. Conditions: P21-P35 treatment; papaverine 20 mg/kg, zolpidem 20 mg/kg, rapamycin 8 mg/kg i.p.; idebenone 200 mg/kg oral. It counts as in vivo, mouse.
Experiment [2] concerns permeabilized LHON mutant (11778 G>A) cells. The experiment in a line: Complex I-driven ATP synthesis, drug applied to permeabilized LHON mutant cells. It counts as cell-based. The note with it: permeabilized cells (30 min) instead of intact cells (2 h); rotenone 0.03 μM.
Procedure: Cells were permeabilized with streptolysin O and mitochondrial complex I-driven ATP synthesis was measured in presence of complex I substrates (malate/pyruvate). […] Intact cells were permeabilized with streptolysin O and mitochondrial complex I-driven ATP synthesis was measured in presence of complex I substrates (malate/pyruvate).
Experiment [3] deals with Ndufs4 KO mice. The experiment in a line: Microglia activation (Iba1 staining of whole mount retinas). The note with it: two weeks (P21-P35) intraperitoneal treatment. It counts as in vivo, mouse.
The test system of experiment [4] is innate immune/inflammatory response in Ndufs4 KO retina. The experiment can be described thus: Retinal gene expression of innate immune and inflammatory markers after drug treatment (Example 3). It counts as in vivo, mouse. The note with it: Ndufs4 KO mice; doses as in drug formulation. On the procedure:
The graphs represent RNA expression of B2m (FIG. 21A), Tlr2 (FIG. 21B), Cxc110 (FIG. 21C), Cc15 (FIG. 21D), and Aif1 (FIG. 21E) in the wild type and Ndufs4 knockout retina. Bars represent mean delta Ct values normalized to housekeeping genes, Actb and Mapk1. Error bars represent standard error of the mean. Statistical significance was determined by two-tailed student's t test. * P<0.05, ** P<0.01, **** P<0.0001.
as §1
We have previously shown that inflammatory gene expression of Aif1, Tlr2, B2m, Cc15, and Cxc110 are all elevated in the Ndufs4 KO mouse compared to wild type by more than 3-fold, indicating an inflammatory pathomechanism of mitochondrial blindness (Yu et al., Proc Natl Acad Sci USA, 2015, 112(42): E5689-98). […] Papaverine, zolpidem, rapamycin, and idebenone were administered to Ndufs4 KO mice to determine whether their protection of vision (FIG. 20) was through an anti-inflammatory mechanism of action. […] Thus, papaverine, zolpidem, and rapamycin appear to protect mitochondrial loss of vision through an antiinflammatory mechanism.

Experiment [5] concerns 11778 (G>A) mutant cybrid. The experiment can be described thus: Mitochondrial copy number (MT-TL1/B2M ratio), mutant cybrids. It counts as cell-based. The note with it: LHON mutant cells [11778(G>A)]; 24 hrs exposure. On the procedure:
(§2) FIGS. 14A-14C illustrate the effect of drugs on the mitochondrial copy number. Difference of mitochondrial copy number between 11778 (G>A) mutant and control cybrids (FIG. 14A). Effect of zolpidem and papaverine on the control healthy cybrid mitochondrial copy number (FIG. 14B) and 11778 (G>A) mutant cybrid mitochondrial copy number (FIG. 14C). Cells were treated with either vehicle or one of the drugs at specified concentration for 24 h. The cells were harvested after 24 h and the ratio between MT-TL1 and B2M was determined. Data is presented as average relative fold change±std. deviation from three independent observations. Statistical significance (p<0.05) is denoted by ‘*’ and was determined by one way ANOVA and Dunett's post hoc test.

The subject of another experiment is control cybrids. The experiment can be described thus: Papaverine response in rotenone-inhibited control cybrids. It counts as cell-based. From the text: FIG. 19A depicts response to papaverine in control cybrids. FIG. 19B depicts response to papaverine in mutant cybrids.
The subject of a further experiment is control healthy cybrid. The experiment can be described thus: Mitochondrial copy number (MT-TL1/B2M ratio), control cybrids. Conditions: control cells; 24 hrs exposure. It counts as cell-based. The procedure:
as §2

The subject of the next experiment is LHON cybrids (11778 G>A). The experiment in a line: Complex I-driven ATP synthesis in rotenone-inhibited LHON mutant cybrids (luciferase-based, high-throughput screen and concentration-response). It counts as cell-based.

With `COc1ccc(Cc2nccc3cc(OC)c(OC)cc23)cc1OC` [papaverine], the “starburst amacrine cell loss” value with Ndufs4 KO mice [1] is “less cell loss than vehicle-treated Ndufs4 KO mice”. Moreover, in the experiment with Ndufs4 knockout mice, the “visual function (median # edge detections)” value is given as “visual function was preserved”. For the same molecule, in experiment [2], the “complex I driven ATP production in permeabilized cells” value is recorded as “inhibited complex I driven ATP production”. For the same molecule, the microglia activation entry in the experiment with Ndufs4 KO mice [3] is “significant inhibition of microglia activation”. Besides, in experiment [4], the “innate immune/inflammatory gene expression (B2m, Tlr2, Cxcl10, Ccl5, Aif1) in retina” value is “significantly inhibited a portion of the innate immune/inflammatory response”. Further, the “ratio of mtDNA/nDNA” value (in [5]; in the experiment with control healthy cybrid) was “did not significantly change the ratio of mtDNA/nDNA” throughout. The “complex 1-dependent ATP synthesis in normal cells inhibited by rotenone” value with control cybrids was “dose dependently stimulates complex 1-dependent ATP synthesis”. Moreover, the fold induction at 10 µM in the experiment on LHON cybrids (11778 G>A) (20 h, read-out: Fold change of ATP synthesis rate greater than 2x Median Absolution Deviation) was 2.4. The “reversal of rotenone sensitivity of complex I-driven ATP synthesis” value with LHON cybrids (11778 G>A) (different concentrations of drug 22 h, then rotenone 0.03 μM 2 h) was “dose-dependently reversed the rotenone sensitivity”. The “protective effect with short treatment of intact cells” value in the experiment on LHON cybrids (11778 G>A) (intact cells treated with papaverine and rotenone 0.03 μM for 2 hrs) is on record as “protective effect of papaverine was observed”. Moreover, the “concentration-dependent reversal of rotenone-induced ATP synthesis inhibition, comparison of the two hits” value with LHON cybrids (11778 G>A) (papaverine vs zolpidem) is “stronger than Zolpidem”.
